Reference: patent US20250099407A1, “2-AMINO BENZOPHENONE DERIVATIVES FOR TARGETED FERROPTOSIS INDUCTION IN CANCER THERAPY” (INDIAN INSTITUTE OF TECHNOLOGY KANPUR, priority 2023, published 2025)
Like-named read-outs stand apart in the source and are kept apart here.

Tests used:
Huh-7 cells = assay: Cell viability, luminescence-based CellTiter-Glo assay, Huh-7 cells; settings: Homo sapiens, Huh-7, Huh-7 cells
Description: The viability of Huh-7 cells was recorded using a luminescence-based CellTiter-Glo® assay. The screening concentration of the molecules were 10 μM with or without Fer-1 (10 μM) in DMEM media (>0.1% DMSO as control).
Ferroptosis is a unique form of cell death mechanism mediated by the accumulation of lipid peroxides in cells which is distinct from healthy cells' apoptosis, a programmed […] route. We aimed to exploit the induction of ferroptosis in cancer cells using covalent small molecules as a potential strategy for cancer therapeutic development. […] We used various amide bond formation chemistry to construct the library members and these molecules are well characterized by various spectroscopic and mass spectrometry techniques. Once confirmed, these thiol reactive library members were screened in a cancer cell viability assay in combination with ferrostatin-1 (Fer-1), a ferroptosis inhibitor as depicted in FIG. 11. […] We have screened a total of ˜50 electrophilic small molecules to prevent the proliferation of hepatocellular carcinoma (Huh-7 cells) in combination with and without Fer-1. From our initial screening, we identified haloacetamides of 2-aminoalkylbenzophenone as potential ferroptosis inducers as depicted in FIG. 11.
(§1) The viability of screened cancer cells was recorded using a luminescence-based CellTiter-Glo® assay for the ATP quantification. The screening concentration of the molecule ranged from 100/10 μM to 45/4.5 nM with an 8-point-3-fold dilution series in DMEM media (>0.1% DMSO as control). Each experiment was conducted in more than two biological replicates with three technical replicates. The error bar is a representation of standard deviation among the technical replicates.
The viability of screened cancer cells was recorded using a luminescence-based CellTiter-Glo® assay for the ATP quantification. The screening concentration of IITK3002 ranged from 10 μM to 4.5 nM with an 8-point-3-fold dilution series in DMEM media (>0.1% DMSO as control). Each experiment was conducted in more than two biological replicates with three technical replicates. The error bar is a representation of standard deviation among the technical replicates. […]
a. Electrophilic Warhead Optimization: Once we identified 2-benzoylphenyl-a-haloacetamide as the lead scaffold, we have investigated the structure-activity-relationship analysis to precisely capture the effect of various chemical handles of the scaffold and use the knowledge to improve the overall potency and selectivity of this molecule to prevent cancer cell proliferation. First, we changed the haloacetamide electrophilic unit with various other electrophiles with a characteristic high, moderate, and weak reactivity with thiols when compared to chloroacetamide. Therefore, we opted vinylsulfonamide (highly reactivity), acrylamide (moderate reactivity), and phenoxyacetamides (weak reactivity warheads) for incorporation in the place of haloacetamide warhead of the top hit scaffold. Once synthesized, these molecules were evaluated to assess their antiproliferative potency against Huh-7 cells (Table 2). As expected, the introduction of weakly reactive electrophilic warheads, phenoxyactamides, completely lost the activity against Huh-7 cells. […] Perhaps, the secondary interactions of the electrophilic warhead with the target proteins might play additional roles. Therefore, we shifted our focus to optimize the rest of the core scaffold for further SAR analysis. b. Role of N-Substitutions: Next, we synthesized the NH-derivative of haloacetamides to capture the importance of N-alkylation on the activity of our hit molecule. […] Perhaps the hydrogen bonding induced planarity around the warhead influences the molecules' weakened potency. Conversely, the additional flexibility in the lead molecule (tertiary amide) might contribute to the strong antiproliferative activity of the hit molecule. […]

U2OS = assay: Cell viability, CellTiter-Glo assay, U2OS; format: cell-based; settings: Homo sapiens
Description: as §1
The viability of screened cancer cells was recorded using a luminescence-based CellTiter-Glo® assay for the ATP quantification. The screening concentration of IITK3002 ranged from 10 μM to 4.5 nM with an 8-point-3-fold dilution series in DMEM media (>0.1% DMSO as control). Each experiment was conducted in more than two biological replicates with three technical replicates. The error bar is a representation of standard deviation among the technical replicates.
a. […] In parallel, we have also synthesized the bromoacetamide (IITK3002) version of the lead molecules which is slightly more reactive with thiol nucleophiles when compared to chlorooacetamide warheads as depicted in FIG. 13. […] In addition, we also evaluated the molecules' antiproliferative potency against a panel of twelve different cancer phenotypes. The set of cancer cell lines included liver, breast, colon, myeloma, bone, blood, skin, brain and prostate lineages (FIG. 2, 3, Table 1).

A549 = assay: Cell viability, A549; format: cell-based; settings: Homo sapiens
[1] = cell viability, read-out: EC50 Huh-7

## C#CCN(C(=O)COc1ccc(C(C)(C)C)cc1)c1ccccc1C(=O)c1ccccc1 [IITK3032, N-(2-benzoylphenyl)-2-(4-(tert-butyl)phenoxy)-N-(prop-2-yn-1-yl)acetamide]
Huh-7 cells; [1]
  EC50: > 20000 nM

## CN(C(=O)CBr)c1ccccc1C(=O)c1ccc(-c2ccc(F)cc2F)cc1 [IITK3067, 2-bromo-N-(2-(2′,4′-difluoro-[1,1′-biphenyl]-4-carbonyl)phenyl)-N-methylacetamide]
Huh-7 cells; [1]
  EC50: 12.1 nM

## CN(C(=O)COc1c(F)c(F)c(F)c(F)c1F)c1ccccc1C(=O)c1ccccc1 [IITK3007, N-(2-benzoylphenyl)-N-methyl-2-(perfluorophenoxy)acetamide]
Huh-7 cells; [1]
  EC50: > 20000 nM

## C=CCN(c1ccccc1C(=O)c1ccccc1)S(=O)(=O)C=C [IITK3027, N-allyl-N-(2-benzoylphenyl)ethenesulfonamide]
U2OS
  EC50: 1220 nM
A549
  EC50: 1920 nM

## CN(C(=O)CBr)c1ccccc1C(=O)c1ccc(-c2cccc(Oc3ccccc3)c2)cc1 [IITK3063, 2-bromo-N-methyl-N-(2-(3′-phenoxy-[1,1′-biphenyl]-4-carbonyl)phenyl)acetamide]
Huh-7 cells; [1]
  EC50: 24.5 nM

## CN(C(=O)CCl)c1ccccc1C(=O)c1ccc(-c2cccc([N+](=O)[O-])c2)cc1 [IITK3068, 2-chloro-N-methyl-N-(2-(3′-nitro-[1,1′-biphenyl]-4-carbonyl)phenyl)acetamide]
Huh-7 cells; [1]
  EC50: 3.06 nM

## C#CCN(C(=O)COc1c(F)c(F)c(F)c(F)c1F)c1ccccc1C(=O)c1ccccc1 [IITK3031, N-(2-benzoylphenyl)-2-(perfluorophenoxy)-N-(prop-2-yn-1-yl)acetamide]
Huh-7 cells; [1]
  EC50: > 20000 nM

## CN(C(=O)CCl)c1ccccc1C(=O)c1ccc(-c2cccc(Oc3ccccc3)c2)cc1 [IITK3062, 2-chloro-N-methyl-N-(2-(3′-phenoxy-[1,1′-biphenyl]-4-carbonyl)phenyl)acetamide]
Huh-7 cells; [1]
  EC50: 36 nM

## CN(C(=O)CCl)c1ccccc1C(=O)c1ccc(-c2ccc(F)cc2F)cc1 [IITK3066, 2-chloro-N-(2-(2′,4′-difluoro-[1,1′-biphenyl]-4-carbonyl)phenyl)-N-methylacetamide]
Huh-7 cells; [1]
  EC50: 8.83 nM

## CN(C(=O)CBr)c1ccccc1C(=O)c1ccc(-c2ccc(C#N)cc2)cc1 [IITK3061, 2-bromo-N-(2-(4′-cyano-[1,1′-biphenyl]-4-carbonyl)phenyl)-N-methylacetamide]
Huh-7 cells; [1]
  EC50: 4820 nM

## CN(C(=O)CCl)c1ccc([N+](=O)[O-])cc1C(=O)c1ccccc1 [IITK3073, N-(2-benzoyl-4-nitrophenyl)-2-chloro-N-methylacetamide]
Huh-7 cells; [1]
  EC50: > 20000 nM

## CN(C(=O)CCl)c1ccccc1C(=O)c1ccc(-c2ccc(C=O)cc2)cc1 [IITK3058, 2-chloro-N-(2-(4′-formyl-[1,1′-biphenyl]-4-carbonyl)phenyl)-N-methylacetamide]
Huh-7 cells; [1]
  EC50: 117 nM

## O=C(CBr)Nc1ccccc1C(=O)c1ccccc1 [IITK3013, N-(2-benzoylphenyl)-2-bromoacetamide]
U2OS
  EC50: 1520 nM

## C=CCN(C(=O)COc1c(F)c(F)c(F)c(F)c1F)c1ccccc1C(=O)c1ccccc1 [IITK3022, N-allyl-N-(2-benzoylphenyl)-2-(perfluorophenoxy)acetamide]
U2OS
  EC50: 1450 nM
A549
  EC50: 3370 nM

## COc1ccc(-c2ccc(C(=O)c3ccccc3N(C)C(=O)CBr)cc2)cc1 [IITK3065, 2-bromo-N-(2-(4′-methoxy-[1,1′-biphenyl]-4-carbonyl)phenyl)-N-methylacetamide]
Huh-7 cells; [1]
  EC50: 16 nM

## C=CS(=O)(=O)N(C)c1ccccc1C(=O)c1ccc(-c2ccccc2)cc1 [IITK3070, N-(2-([1,1′-biphenyl]-4-carbonyl)phenyl)-N-methylethenesulfonamide]
Huh-7 cells; [1]
  EC50: 8220 nM

## Cc1ccc(-c2ccc(C(=O)c3ccccc3N(C)C(=O)CBr)cc2)cc1 [IITK3057, 2-bromo-N-methyl-N-(2-(4′-methyl-[1,1′-biphenyl]-4-carbonyl)phenyl)acetamide]
Huh-7 cells; [1]
  EC50: 18 nM

## C=CCN(C(=O)CCl)c1ccccc1C(=O)c1ccccc1 [IITK3018, N-allyl-N-(2-benzoylphenyl)-2-chloroacetamide]
U2OS
  EC50: 600 nM
A549
  EC50: 2400 nM

## COc1ccc(-c2ccc(C(=O)c3ccccc3N(C)C(=O)CCl)cc2)cc1 [IITK3064, 2-chloro-N-(2-(4′-methoxy-[1,1′-biphenyl]-4-carbonyl)phenyl)-N-methylacetamide]
Huh-7 cells; [1]
  EC50: 19 nM

## CN(C(=O)CBr)c1ccccc1C(=O)c1ccc(-c2ccc(C=O)cc2)cc1 [IITK3059, 2-bromo-N-(2-(4′-formyl-[1,1′-biphenyl]-4-carbonyl)phenyl)-N-methylacetamide]
Huh-7 cells; [1]
  EC50: 79 nM

## C#CCOC(=O)Nc1ccc(N(C)C(=O)CBr)c(C(=O)c2ccccc2)c1 [IITK3053, prop-2-yn-1-yl (3-benzoyl-4-(2-bromo-N-methylacetamido)phenyl)carbamate]
Huh-7 cells; [1]
  EC50: 11700 nM
U2OS
  EC50: 770 nM
A549
  EC50: 1540 nM

## CN(C(=O)CCl)c1ccccc1C(=O)c1ccc(-c2ccc(C#N)cc2)cc1 [IITK3060, 2-chloro-N-(2-(4′-cyano-[1,1′-biphenyl]-4-carbonyl)phenyl)-N-methylacetamide]
Huh-7 cells; [1]
  EC50: 26 nM

## CN(C(=O)CBr)c1ccccc1C(=O)c1ccc(-c2ccccc2)cc1 [IITK3056, N-(2-([1,1′-biphenyl]-4-carbonyl)phenyl)-2-bromo-N-methylacetamide]
Huh-7 cells; [1]
  EC50: 13 nM

## C#CCN(C(=O)CBr)c1ccccc1C(=O)c1ccc(-c2ccccc2)cc1 [IITK3071, N-(2-([1,1′-biphenyl]-4-carbonyl)phenyl)-2-bromo-N-(prop-2-yn-1-yl)acetamide]
Huh-7 cells; [1]
  EC50: < 100 nM

## C#CCOC(=O)Nc1ccc(N(C)C(=O)CCl)c(C(=O)c2ccccc2)c1 [IITK3052, prop-2-yn-1-yl (3-benzoyl-4-(2-chloro-N-methylacetamido)phenyl)carbamate]
Huh-7 cells; [1]
  EC50: 32800 nM
U2OS
  EC50: 2920 nM
A549
  EC50: 4180 nM

## C=CCN(C(=O)CBr)c1ccccc1C(=O)c1ccccc1 [IITK3019, N-allyl-N-(2-benzoylphenyl)-2-bromoacetamide]
U2OS
  EC50: 30 nM
A549
  EC50: 300 nM

## O=C(COc1ccccc1)Nc1ccccc1C(=O)c1ccccc1 [IITK3014, N-(2-benzoylphenyl)-2-phenoxyacetamide]
Huh-7 cells; [1]
  EC50: > 20000 nM
U2OS
  EC50: > 20000 nM

## C#CCN(C(=O)CCl)c1ccccc1C(=O)c1ccc(-c2ccccc2)cc1 [IITK3072, N-(2-([1,1′-biphenyl]-4-carbonyl)phenyl)-2-chloro-N-(prop-2-yn-1-yl)acetamide]
Huh-7 cells; [1]
  EC50: > 138 nM

## C=CCN(C(=O)COc1ccc([N+](=O)[O-])cc1)c1ccccc1C(=O)c1ccccc1 [IITK3025, N-allyl-N-(2-benzoylphenyl)-2-(4-nitrophenoxy)acetamide]
Huh-7 cells; [1]
  EC50: > 100000 nM

## C=CCN(C(=O)C=C)c1ccccc1C(=O)c1ccccc1 [IITK3026, N-allyl-N-(2-benzoylphenyl)acrylamide]
A549
  EC50: 32800 nM

## CN(C(=O)CBr)c1ccccc1C(=O)c1ccc(-c2cccc([N+](=O)[O-])c2)cc1 [IITK3069, 2-bromo-N-methyl-N-(2-(3′-nitro-[1,1′-biphenyl]-4-carbonyl)phenyl)acetamide]
Huh-7 cells; [1]
  EC50: 3.5 nM

## CN(C(=O)CCl)c1ccccc1C(=O)c1ccc(-c2ccccc2)cc1 [IITK3055, N-(2-([1,1′-biphenyl]-4-carbonyl)phenyl)-2-chloro-N-methylacetamide]
Huh-7 cells; antiproliferative activity, read-out: EC50 in Huh-7 cells
  EC50: 2 nM
Huh-7 cells; [1]
  EC50: 2 nM
